# Experimental data from ChEMBL document CHEMBL1201862, “PubChem BioAssay data set” (2004).
# The source made the active and inactive calls. Rule as the data show it, for most assays here: actives have a measured EC50 and inactives only a lower limit.
# Columns and labels:
# [1] = biological target: T1, Corticotropin-releasing factor receptor 2/Corticotropin-releasing factor-binding protein (Homo sapiens, UniProt P24387+Q13324); assay: activators of CRF receptor 2 with binding protein – uHTS hits, confirmation (AID 602473); type: functional; conditions: read-out: EC50_Mean
# T1 sequence (Q13324 whole entry): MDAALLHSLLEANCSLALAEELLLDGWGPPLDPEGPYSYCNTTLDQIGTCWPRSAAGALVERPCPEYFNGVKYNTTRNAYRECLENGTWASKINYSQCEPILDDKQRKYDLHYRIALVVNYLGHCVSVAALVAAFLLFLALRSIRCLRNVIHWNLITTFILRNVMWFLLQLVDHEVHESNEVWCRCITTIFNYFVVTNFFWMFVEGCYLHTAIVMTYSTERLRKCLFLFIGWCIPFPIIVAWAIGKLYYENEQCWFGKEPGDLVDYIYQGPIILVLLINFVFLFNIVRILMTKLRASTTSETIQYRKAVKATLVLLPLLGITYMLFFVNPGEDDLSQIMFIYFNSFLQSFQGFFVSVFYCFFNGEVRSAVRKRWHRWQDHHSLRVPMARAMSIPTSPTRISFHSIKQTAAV
# T1 sequence (P24387 whole entry): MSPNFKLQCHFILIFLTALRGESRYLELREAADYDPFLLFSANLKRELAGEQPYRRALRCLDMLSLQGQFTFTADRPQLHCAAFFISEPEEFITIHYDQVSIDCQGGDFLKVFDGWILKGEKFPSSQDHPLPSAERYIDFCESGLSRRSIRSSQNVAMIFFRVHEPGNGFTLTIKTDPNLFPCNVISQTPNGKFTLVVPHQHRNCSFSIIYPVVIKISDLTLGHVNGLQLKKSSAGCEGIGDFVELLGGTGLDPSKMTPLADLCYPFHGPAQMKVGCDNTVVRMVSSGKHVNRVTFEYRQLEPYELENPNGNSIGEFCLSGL
# [2] = test system: Streptococcus sp. 'group A'; assay: growth inhibition of control SK(-) GAS strain, dose response, counter-screen for streptokinase expression inhibitor project, luminescence, kanamycin, BacTiterGlo, confirmation (AID 1900); type: functional, organism-based
# [3] = inhibitors of intracellular T. cruzi replication, confirmation, NIH3T3 host cells, beta-gal luminescence (AID 2044); type: functional, cell-based;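 also: intracellular parasites grown in NIH/3T3 mouse fibroblasts as host cells; luminescent beta-galactosidase reporter signal from transgenic T. cruzi replicating inside host cells; inhibitors lower the luminescence signal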
# [4] = cytotoxicity toward NIH3T3 fibroblasts, dose response, counter-screen, cell-based, ATP luminescence, mouse fibroblasts (AID 2010); type: functional;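 also: cells exposed to compound for about 90 hours before reading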
# Streptococcus = assay: Group A Streptococcus viability loss, dose response, counter-screen for streptokinase expression inhibitor project, luminescence, BacTiterGlo (AID 1915); type: functional, organism-based;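 also: potency for reduction of bacterial viability or growth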
# Vero = assay: cells; type: functional; conditions: Chlorocebus sabaeus
# [5] = biological target: T2, RNA-binding protein pos-1 (Caenorhabditis elegans, UniProt G5EF15); assay: inhibitors of POS-1/mex-3 RNA binding, dose response, biochemical, fluorescence polarization (AID 1964);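 also: purified POS-1 fused to maltose binding protein made in E. coli; potency of compounds blocking POS-1 binding to fluorescent RNA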
# T2 sequence (G5EF15 whole entry): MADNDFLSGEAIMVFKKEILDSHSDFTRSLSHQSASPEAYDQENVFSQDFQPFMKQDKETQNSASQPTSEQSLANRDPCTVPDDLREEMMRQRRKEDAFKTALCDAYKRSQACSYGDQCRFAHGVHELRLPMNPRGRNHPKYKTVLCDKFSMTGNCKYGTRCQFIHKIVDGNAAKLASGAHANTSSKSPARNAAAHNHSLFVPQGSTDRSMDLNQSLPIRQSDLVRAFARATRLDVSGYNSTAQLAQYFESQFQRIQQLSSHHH
# [6] = biological target: T3, Zinc finger protein mex-5 (Caenorhabditis elegans, UniProt Q9XUB2); assay: MEX-5/TCR-2 RNA interaction inhibitors, dose response, biochemical, C. elegans, fluorescence polarization (AID 1960)
# T3 sequence (Q9XUB2 whole entry): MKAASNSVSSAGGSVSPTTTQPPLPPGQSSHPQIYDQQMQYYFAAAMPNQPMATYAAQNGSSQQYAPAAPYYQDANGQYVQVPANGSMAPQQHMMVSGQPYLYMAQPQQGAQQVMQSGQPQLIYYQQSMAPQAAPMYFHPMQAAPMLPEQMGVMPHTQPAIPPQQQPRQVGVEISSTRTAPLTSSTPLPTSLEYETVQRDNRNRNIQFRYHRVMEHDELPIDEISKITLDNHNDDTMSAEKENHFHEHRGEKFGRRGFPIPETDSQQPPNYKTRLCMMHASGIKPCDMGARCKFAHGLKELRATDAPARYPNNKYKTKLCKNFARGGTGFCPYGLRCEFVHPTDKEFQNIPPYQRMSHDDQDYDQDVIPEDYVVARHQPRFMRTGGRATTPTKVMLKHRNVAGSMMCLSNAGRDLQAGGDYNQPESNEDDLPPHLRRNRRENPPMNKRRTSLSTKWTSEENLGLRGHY
# Streptokinase A = biological target: T4, Streptokinase A (Streptococcus pyogenes serotype M1, UniProt P10520); assay: S. pyogenes streptokinase expression inhibitors, potency, dose response, plasminogen activation absorbance, OD405 (AID 1914); type: functional, Streptococcus pyogenes M1 GAS;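 also: secreted streptokinase activity via plasminogen activation per viability signal from cell pellet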
# T4 sequence (P10520 whole entry): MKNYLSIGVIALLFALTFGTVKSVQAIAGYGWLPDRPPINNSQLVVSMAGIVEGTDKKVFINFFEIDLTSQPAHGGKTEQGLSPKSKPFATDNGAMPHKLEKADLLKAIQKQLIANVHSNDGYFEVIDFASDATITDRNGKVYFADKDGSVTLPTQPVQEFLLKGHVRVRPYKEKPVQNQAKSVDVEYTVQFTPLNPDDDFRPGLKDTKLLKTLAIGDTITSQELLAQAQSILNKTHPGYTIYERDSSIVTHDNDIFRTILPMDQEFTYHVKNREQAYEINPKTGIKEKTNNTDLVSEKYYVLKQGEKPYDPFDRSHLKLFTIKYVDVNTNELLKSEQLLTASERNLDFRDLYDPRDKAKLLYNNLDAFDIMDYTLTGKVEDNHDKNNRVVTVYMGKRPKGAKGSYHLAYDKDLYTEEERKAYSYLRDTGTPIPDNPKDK
# [7] = microbe, parasite or virus in culture; type: functional; conditions: Mycobacterium tuberculosis
# [8] = biological target: T5, Replicative DNA helicase DnaB (Mycobacterium tuberculosis, UniProt P9WMR3); assay: DnaB intein splicing inhibitors, dose response, biochemical, cell-free fluorescence (AID 449749); type: functional
# T5 sequence (P9WMR3 whole entry): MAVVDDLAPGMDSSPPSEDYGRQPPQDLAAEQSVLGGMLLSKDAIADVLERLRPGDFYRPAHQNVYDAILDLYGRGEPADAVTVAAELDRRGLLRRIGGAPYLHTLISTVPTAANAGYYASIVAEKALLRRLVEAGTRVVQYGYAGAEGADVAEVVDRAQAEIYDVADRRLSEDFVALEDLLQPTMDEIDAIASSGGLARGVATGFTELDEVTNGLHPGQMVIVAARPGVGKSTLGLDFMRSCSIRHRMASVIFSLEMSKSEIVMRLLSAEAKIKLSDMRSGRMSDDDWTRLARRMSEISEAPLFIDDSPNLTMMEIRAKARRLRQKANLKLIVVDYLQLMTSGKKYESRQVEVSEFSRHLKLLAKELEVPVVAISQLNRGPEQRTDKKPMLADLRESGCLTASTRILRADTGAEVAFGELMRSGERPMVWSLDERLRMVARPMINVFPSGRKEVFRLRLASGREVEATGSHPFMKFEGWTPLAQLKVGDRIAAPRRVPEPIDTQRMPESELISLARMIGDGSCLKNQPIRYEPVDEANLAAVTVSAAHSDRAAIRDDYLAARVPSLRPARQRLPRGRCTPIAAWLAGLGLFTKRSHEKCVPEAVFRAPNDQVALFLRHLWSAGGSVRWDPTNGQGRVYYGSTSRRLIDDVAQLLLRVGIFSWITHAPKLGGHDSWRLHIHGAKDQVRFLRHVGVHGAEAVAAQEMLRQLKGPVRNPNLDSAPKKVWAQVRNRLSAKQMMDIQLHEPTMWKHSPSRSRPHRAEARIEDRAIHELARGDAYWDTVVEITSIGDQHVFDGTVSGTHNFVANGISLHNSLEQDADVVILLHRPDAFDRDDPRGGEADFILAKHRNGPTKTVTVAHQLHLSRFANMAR
# Protein RecA = biological target: T6, Protein RecA (Mycobacterium tuberculosis, UniProt P9WHJ3); assay: Fluorescence Cell-Free Homogeneous Dose Retest to Identify Inhibitors of RecA-Intein Splicing Activity. [Related pubchem assays (depositor defined):AID2097, AID2223, AID489010, AID492950]; type: functional
# T6 sequence (P9WHJ3 whole entry): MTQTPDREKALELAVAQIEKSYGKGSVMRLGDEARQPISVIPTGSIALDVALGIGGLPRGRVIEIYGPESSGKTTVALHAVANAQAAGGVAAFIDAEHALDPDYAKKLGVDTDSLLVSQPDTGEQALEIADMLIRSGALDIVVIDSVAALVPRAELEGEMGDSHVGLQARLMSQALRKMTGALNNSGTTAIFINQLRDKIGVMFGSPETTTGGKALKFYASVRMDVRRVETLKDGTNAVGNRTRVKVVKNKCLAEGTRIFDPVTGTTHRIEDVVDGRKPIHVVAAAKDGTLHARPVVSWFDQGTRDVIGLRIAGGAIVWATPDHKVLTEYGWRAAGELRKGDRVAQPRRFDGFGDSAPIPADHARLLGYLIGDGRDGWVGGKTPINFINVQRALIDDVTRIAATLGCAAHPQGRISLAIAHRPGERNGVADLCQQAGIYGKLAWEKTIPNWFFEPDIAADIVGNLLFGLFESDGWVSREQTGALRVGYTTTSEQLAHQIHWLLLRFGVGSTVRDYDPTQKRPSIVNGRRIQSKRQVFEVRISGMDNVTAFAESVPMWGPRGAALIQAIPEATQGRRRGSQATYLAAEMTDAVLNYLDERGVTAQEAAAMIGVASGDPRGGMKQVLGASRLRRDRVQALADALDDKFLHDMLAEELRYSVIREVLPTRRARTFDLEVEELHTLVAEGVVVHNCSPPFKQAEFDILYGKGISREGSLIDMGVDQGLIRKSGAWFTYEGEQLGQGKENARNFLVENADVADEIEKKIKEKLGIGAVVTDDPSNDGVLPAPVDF
# Genome polyprotein = Genome polyprotein (dengue virus type 2, UniProt P29990); assay: Dengue-2 NS5 methyltransferase inhibitors, primary screen, biochemical, confirmation dose response (AID 588689); type: functional
# Sequence of Genome polyprotein (P29990 2492-3391 limits assumed): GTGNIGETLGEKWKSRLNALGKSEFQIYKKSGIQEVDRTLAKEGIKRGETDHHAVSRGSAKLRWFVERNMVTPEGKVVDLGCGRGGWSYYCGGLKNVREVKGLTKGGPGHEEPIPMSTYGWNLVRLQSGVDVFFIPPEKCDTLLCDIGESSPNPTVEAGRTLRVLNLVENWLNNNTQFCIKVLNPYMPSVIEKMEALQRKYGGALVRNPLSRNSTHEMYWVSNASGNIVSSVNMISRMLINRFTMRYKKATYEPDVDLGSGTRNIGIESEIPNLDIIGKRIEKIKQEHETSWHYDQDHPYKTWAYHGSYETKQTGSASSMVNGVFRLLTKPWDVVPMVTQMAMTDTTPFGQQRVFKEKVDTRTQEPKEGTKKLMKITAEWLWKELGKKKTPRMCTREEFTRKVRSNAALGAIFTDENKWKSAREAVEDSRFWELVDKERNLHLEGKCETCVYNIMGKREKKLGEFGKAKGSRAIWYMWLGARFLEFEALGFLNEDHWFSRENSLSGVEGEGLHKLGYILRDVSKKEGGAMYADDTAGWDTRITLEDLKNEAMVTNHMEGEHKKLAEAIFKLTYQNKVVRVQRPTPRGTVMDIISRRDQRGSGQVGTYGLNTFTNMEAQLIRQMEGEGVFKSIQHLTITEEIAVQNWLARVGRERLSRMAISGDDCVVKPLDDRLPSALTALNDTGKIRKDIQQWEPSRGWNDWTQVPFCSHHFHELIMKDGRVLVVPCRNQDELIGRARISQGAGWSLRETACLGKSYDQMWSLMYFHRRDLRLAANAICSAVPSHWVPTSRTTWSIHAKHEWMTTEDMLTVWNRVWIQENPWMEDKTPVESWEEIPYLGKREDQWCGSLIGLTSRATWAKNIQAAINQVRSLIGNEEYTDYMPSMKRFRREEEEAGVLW
# BJ [9] = assay: cytotoxicity toward BJ-TERT fibroblasts, dose response, cell-based, RAS-independent, luminescence (AID 1933); type: functional; conditions: Homo sapiens
# BJ [10] = assay: cells; type: functional, cell-based; conditions: Homo sapiens
# BJ [11] = assay: cytotoxicity toward BJ-TERT-LT-ST fibroblasts, dose response, cell-based, RAS-independent, luminescence (AID 1935); type: functional; conditions: Homo sapiens;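 also: BJ fibroblasts immortalized with TERT plus LT and ST oncogenes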
# [12] = cytotoxicity toward DRD oncogenic fibroblasts, dose response, cell-based, non-viral oncogenic, luminescence (AID 1934); type: functional; conditions: Homo sapiens
# [13] = Luminescence Cell-Based Dose Retest to Confirm Inhibitors of Cancer Stem Cells. [Related pubchem assays (depositor defined):AID2717, AID2721]; type: functional; conditions: Homo sapiens
# INS1 = assay: beta cell apoptosis inhibitors, cytokine rescue, dose response, luminescence, retest (AID 449756); type: functional, cell-based; conditions: Rattus norvegicus;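 also: cell death triggered by IL-1 beta plus TNF-alpha plus IFN-gamma mixture; protective hits raise ATP signal compared with cytokine alone wells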
# [14] = HEp-2 cell cytotoxicity, dose response, cytotoxicity control for RSV inhibitor project, HTS (AID 2410); type: functional; conditions: human respiratory syncytial virus
compound,measurement,setting,value
CN(C)c1ccc(/C=C2\C(=N)N3N=C(CC(=O)N4CCCCC4)SC3=NC2=O)cc1,EC50,[1],6.36 µM (active)
COc1cc(/C=C/c2ccc3cccc(O)c3n2)c(Br)cc1O,EC50,[2],0.865 µM (active)
same,EC50,[3],3.92 µM (active)
same,EC50,[4],> 60 µM (not active)
same,EC50,Streptococcus,2.68 µM (active)
same,CC50,Vero,8.46 µM (active)
O=[N+]([O-])c1ccc2nc(O)c(/C=C(\O)c3ccccc3)nc2c1,EC50,[5],20.1 µM (active)
same,EC50,[6],> 300 µM (inconclusive)
Oc1ccc(Br)cc1/C=N/Nc1nc(N2CCCCC2)nc(N2CCOCC2)n1,EC50,[2],3.48 µM (active)
same,EC50,Streptokinase A,33.6 µM (active)
same,EC50,[3],1.91 µM (active)
same,CC50,[7],> 40 µM (active)
same,EC50,[4],> 60 µM (not active)
same,EC50,Streptococcus,24.7 µM (active)
Cc1cc(O)c(CN(C)C)c2c1C(=O)/C(=C/c1ccco1)O2,EC50,[5],32.1 µM (active)
same,EC50,[6],39.8 µM (active)
CCN(CC)S(=O)(=O)c1ccc(N/C=C2\C(=O)N(C)C(=O)C(C#N)=C2C)cc1,EC50,[5],32.7 µM (active)
same,EC50,[6],44.4 µM (active)
O=C(CCN1C(=O)/C(=C\c2ccccc2F)SC1=S)Nc1ccc(C(=O)O)c(O)c1,AC50,[8],11.4 µM (active)
same,EC50,Protein RecA,15.2 µM (active)
same,IC50,Genome polyprotein,32.5 µM (active)
O=C1Nc2cc(Cl)cnc2N2CCCC12 (centres undefined),EC50,[5],16.8 µM (active)
same,EC50,[6],12.5 µM (active)
Cc1cc(C)cc(NC(=S)N(Cc2ccc(Cl)cc2)Cc2ccc(C(=O)O)cc2)c1,IC50,Genome polyprotein,92.1 µM (active)
N#CC1=C(N)N2C(=C(C#N)C1c1ccc(Br)cc1)Nc1ccccc12 (centres undefined),EC50,BJ [9],11.8 µM (inconclusive)
same,EC50,BJ [10],62.4 µM (active)
same,EC50,BJ [11],> 150 µM (inconclusive)
same,EC50,[12],9.84 µM (active)
same,AC50,[13],0.794 µM (active)
same,AC50,INS1,3.56 µM (active)
Cc1ccsc1C1NC(=O)c2c(sc3c2CCN(C)C3)N1 (centres undefined),EC50,[1],> 53 µM (inactive)
C=CCC[C@@H](Cc1ccc(F)cc1)C(=O)OC[C@H](Cc1c[nH]c2ccccc12)NC(=O)[C@@H](CC=C)CC(=O)NCCO,EC50,[1],11.4 µM (active)
COc1ccc(NC(=O)C(c2cc3c(cc2[N+](=O)[O-])OCO3)N(C)c2ccccc2)cc1 (centres undefined),EC50,[1],> 53 µM (inactive)
CCc1nc2sc3c(c2c(=O)n1NC(=O)CCl)CCCC3,CC50,[14],10.2 µM (active)
same,EC50,BJ [9],> 150 µM (not active)
same,EC50,BJ [10],> 150 µM (not active)
same,EC50,BJ [11],> 150 µM (not active)
same,EC50,[12],> 150 µM (not active)
Cc1cc(N2CCOCC2)nc(NCc2ccccc2)n1,EC50,[1],5.68 µM (active)
